Data published in US8658661B2, “Oxadiazole inhibitors of leukotriene production” (Boehringer Ingelheim International GmbH, priority 2010, dated 2014).

How the values were obtained:
[1] = molecular target: T1, recombinant human FLAP protein (Homo sapiens, UniProt P20292); test: FLAP binding assay (SPA, displacement of [125I]L-691,831); settings: membranes of sf9 cells expressing recombinant human FLAP; [125I]L-691,831 probe; read-out: FLAP binding IC50
T1 construct: made in house; host or cells: Sf9 insect cells (100,000×g membrane pellet used)
T1 sequence (P20292 1-161): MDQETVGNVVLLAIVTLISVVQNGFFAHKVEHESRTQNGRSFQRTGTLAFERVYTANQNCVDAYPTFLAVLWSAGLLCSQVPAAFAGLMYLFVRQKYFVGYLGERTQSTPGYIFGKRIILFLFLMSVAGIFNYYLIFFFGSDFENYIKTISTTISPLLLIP
Outline: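 Membranes from sf9 cells expressing human FLAP in pH 7.5 Tris buffer (MgCl2, EDTA, PMSF). Non-specific binding defined with 10 μM cold L-691,831.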

[2] = system: synthesis of LTB4 in human whole blood; test: Human whole blood assay (inhibition of LTB4 synthesis, calcimycin stimulated); type: cell-based; settings: heparinized human whole blood, calcimycin 20 μM, plasma LTB4
Outline: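 Readout: plasma LTB4 by antibody-based HTRF. Compound added to heparinized human whole blood, 15 min 37° C; calcimycin 20 μM final (PBS pH 7.4), 30 min 37° C; spun 1500×g 5 min, plasma taken.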

SMILES | IC50 [1] | IC50 [2]
CCC(C)(c1ccc(-c2cnc(N)nc2)cc1)c1noc(-c2ccc(C)nc2)n1 (stereo not shown) [Example 143, 5-(4-{2-[5-(6-methylpyridin-3-yl)-1,2,4-oxadiazol-3-yl]butan-2-yl}phenyl)pyrimidin-2-amine] | 4.1 nM | 360 nM
C[C@@](c1ccc(-c2cnc(N)cn2)cc1)(c1noc(-c2cnn(C3COC3)c2)n1)C1CC1 [Example 265, 5-(4-{(R)-1-Cyclopropyl-1-[5-(1-oxetan-3-yl-1H-pyrazol-4-yl)-[1,2,4]oxadiazol-3-yl]-ethyl}-phenyl)-pyrazin-2-ylamine; compound with trifluoro-acetic acid] | 5.1 nM | 22 nM
Cn1cc(-c2nc(C(C)(c3ccc(-c4cnc5[nH]ccc5n4)cc3)C3CC3)no2)cn1 (stereo not shown) [Example 273, 2-(4-{1-Cyclopropyl-1-[5-(1-methyl-1H-pyrazol-4-yl)-[1,2,4]oxadiazol-3-yl]-ethyl}-phenyl)-5H-pyrrolo[2,3-b]pyrazine] | 6.1 nM | 56 nM
COCCn1cc(-c2nc([C@](C)(c3ccc(-c4cnc(N)nc4)cc3)C(C)C)no2)cn1 [Example 64, 5-{4-[(2S)-2-{5-[1-(2-methoxyethyl)-1H-pyrazol-4-yl]-1,2,4-oxadiazol-3-yl}-3-methylbutan-2-yl]phenyl}pyrimidin-2-amine] | 16 nM | 410 nM
C[C@](c1ccc(-c2cnc(N)cn2)cc1)(c1noc(-c2cnc(N3CCNCC3)cn2)n1)C1CC1 [Example 214, 5-(4-{(S)-1-Cyclopropyl-1-[5-(3,4,5,6-tetrahydro-2H-[1,2′]bipyrazinyl-5′-yl)-[1,2,4]oxadiazol-3-yl]-ethyl}-phenyl)-pyrazin-2-ylamine] | 12 nM | 450 nM
CC(C)(O)Cn1cc(-c2nc([C@@](C)(c3ccc(-c4cnc(N)cn4)cc3)C3CC3)no2)cn1 [Example 175, 1-[4-(3-{(R)-1-[4-(5-Amino-pyrazin-2-yl)-phenyl]-1-cyclopropyl-ethyl}-[1,2,4]oxadiazol-5-yl)-pyrazol-1-yl]-2-methyl-propan-2-ol] | 2.2 nM | 39 nM
CC(C)C(C)(c1ccc(-c2cnc(N)nc2)cc1)c1noc(C2CCOCC2)n1 (stereo not shown) [Example 138, 5-(4-{3-methyl-2-[5-(tetrahydro-2H-pyran-4-yl)-1,2,4-oxadiazol-3-yl]butan-2-yl}phenyl)pyrimidin-2-amine] | 15 nM | 760 nM
CC(C)C(C)(c1ccc(-c2cnc(N)nc2)cc1)c1noc(N2CCC(CO)CC2)n1 (stereo not shown) [Example 209, [1-(3-{1-[4-(2-Amino-pyrimidin-5-yl)-phenyl]-1,2-dimethyl-propyl}-[1,2,4]oxadiazol-5-yl)-piperidin-4-yl]-methanol] | 8.2 nM | 100 nM
CC(C)C(C)(c1ccc(-c2cnc(N)nc2)cc1)c1noc(N2CCC(C(N)=O)CC2)n1 (stereo not shown) [Example 213, 1-(3-{1-[4-(2-Amino-pyrimidin-5-yl)-phenyl]-1,2-dimethyl-propyl}-[1,2,4]oxadiazol-5-yl)-piperidine-4-carboxylic acid amide] | 14 nM | 330 nM
CC(C)(O)CNc1cnc(-c2nc(C(C)(c3ccc(-c4cnc(N)nc4)cc3)C3CC3)no2)cn1 (stereo not shown) [Example 44, 1-{[5-(3-{1-[4-(2-aminopyrimidin-5-yl)phenyl]-1-cyclopropylethyl}-1,2,4-oxadiazol-5-yl)pyrazin-2-yl]amino}-2-methylpropan-2-ol] | 2.2 nM | 150 nM
CC(C)C(C)(c1ccc(-c2cnc(N)nc2)cc1)c1noc(N2CCS(=O)(=O)CC2)n1 (stereo not shown) [Example 168, 5-(4-{1-[5-(1,1-Dioxo-1lambda6-thiomorpholin-4-yl)-[1,2,4]oxadiazol-3-yl]-1,2-dimethyl-propyl}-phenyl)-pyrimidin-2-ylamine] | 21 nM | 390 nM
CC(C)(c1ccc(-c2cnc(N)nc2)cc1)c1noc(-c2cn[nH]c2)n1 [Example 69, 5-(4-{2-[5-(1H-pyrazol-4-yl)-1,2,4-oxadiazol-3-yl]propan-2-yl}phenyl)pyrimidin-2-amine] | 7.7 nM | 120 nM
CC(C)C(C)(c1ccc(-c2cnc(N)nc2)cc1)c1noc(N2CCN(C(C)(C)C)CC2)n1 (stereo not shown) [Example 261, 5-(4-{1-[5-(4-tert-Butyl-piperazin-1-yl)-[1,2,4]oxadiazol-3-yl]-1,2-dimethyl-propyl}-phenyl)-pyrimidin-2-ylamine] | 11 nM | 190 nM
CC(C)[C@@](C)(c1ccc(-c2cnc(N)nc2)cc1)c1noc(-c2ccnn2C)n1 [Example 32, 5-(4-{(2S)-3-methyl-2-[5-(1-methyl-1H-pyrazol-5-yl)-1,2,4-oxadiazol-3-yl]butan-2-yl}phenyl)pyrimidin-2-amine] | 18 nM | 2500 nM
CC(C)C(C)(c1ccc(-c2cnc(N)nc2)cc1)c1noc(-c2cnn(CC(C)(C)O)c2)n1 (stereo not shown) [Example 159, 1-[4-(3-{2-[4-(2-aminopyrimidin-5-yl)phenyl]-3-methylbutan-2-yl}-1,2,4-oxadiazol-5-yl)-1H-pyrazol-1-yl]-2-methylpropan-2-ol] | 4.6 nM | 83 nM
CC(C)C(C)(c1ccc(-c2cnc(N)nc2)cc1)c1noc(-c2cccc(=O)n2C)n1 (stereo not shown) [Example 165, 6-(3-{2-[4-(2-aminopyrimidin-5-yl)phenyl]-3-methylbutan-2-yl}-1,2,4-oxadiazol-5-yl)-1-methylpyridin-2(1H)-one] | 2.1 nM | 89 nM
COCCn1cc(-c2nc(C(C)(C)c3ccc(-c4cnc(N)nc4)cc3)no2)cn1 [Example 76, 5-[4-(2-{5-[1-(2-methoxyethyl)-1H-pyrazol-4-yl]-1,2,4-oxadiazol-3-yl}propan-2-yl)phenyl]pyrimidin-2-amine] | 35 nM | 270 nM
CC(C)C(C)(c1ccc(-c2cnc(N)nc2)cc1)c1noc(N2CCOCC2)n1 (stereo not shown) [Example 89, 5-(4-{3-methyl-2-[5-(morpholin-4-yl)-1,2,4-oxadiazol-3-yl]butan-2-yl}phenyl)pyrimidin-2-amine] | 13 nM | 270 nM
CC(C)C(C)(c1ccc(-c2cnc(N)nc2)cc1)c1noc(-c2ccc(N)nc2)n1 (stereo not shown) [Example 151, 5-(4-{2-[5-(6-aminopyridin-3-yl)-1,2,4-oxadiazol-3-yl]-3-methylbutan-2-yl}phenyl)pyrimidin-2-amine] | 2.3 nM | 100 nM
CC(C)C(C)(c1ccc(-c2cnc(N)nc2)cc1)c1noc(-c2ccc(C(N)=O)nc2)n1 (stereo not shown) [Example 125, 5-(3-{2-[4-(2-aminopyrimidin-5-yl)phenyl]-3-methylbutan-2-yl}-1,2,4-oxadiazol-5-yl)pyridine-2-carboxamide] | 1.5 nM | 290 nM
CN(C)C(=O)Cn1cc(-c2nc([C@](C)(c3ccc(-c4cnc(N)nc4)cc3)C3CCC3)no2)cn1 [Example 105, 2-[4-(3-{(1S)-1-[4-(2-aminopyrimidin-5-yl)phenyl]-1-cyclobutylethyl}-1,2,4-oxadiazol-5-yl)-1H-pyrazol-1-yl]-N,N-dimethylacetamide] | 490 nM | > 5000 nM
CC(C)C(C)(c1ccc(-c2cnc(N)nc2)cc1)c1noc(-c2ccnnc2)n1 (stereo not shown) [Example 147, 5-(4-{3-methyl-2-[5-(pyridazin-4-yl)-1,2,4-oxadiazol-3-yl]butan-2-yl}phenyl)pyrimidin-2-amine] | 2.7 nM | 86 nM
COCCn1cc(-c2nc([C@](C)(c3ccc(-c4cnc(N)nc4)cc3)C3CCC3)no2)cn1 [Example 101, 5-{4-[(1S)-1-cyclobutyl-1-{5-[1-(2-methoxyethyl)-1H-pyrazol-4-yl]-1,2,4-oxadiazol-3-yl}ethyl]phenyl}pyrimidin-2-amine] | 280 nM | > 5000 nM
CC(C)C(C)(c1ccc(-c2cnc(N)nc2)cc1)c1noc(N2CCN(C)CC2)n1 (stereo not shown) [Example 96, 5-(4-{3-methyl-2-[5-(4-methylpiperazin-1-yl)-1,2,4-oxadiazol-3-yl]butan-2-yl}phenyl)pyrimidin-2-amine] | 7.5 nM | 150 nM
Cc1ccc(-c2nc(C(C)(c3ccc(-c4cnc(N)nc4)cc3)C3CC3)no2)cn1 (stereo not shown) [Example 29, 5-(4-{1-cyclopropyl-1-[5-(6-methylpyridin-3-yl)-1,2,4-oxadiazol-3-yl]ethyl}phenyl)pyrimidin-2-amine] | 5.3 nM | 190 nM
CN(C)C(=O)Cn1cc(-c2nc([C@@](C)(c3ccc(-c4cnc(N)cn4)cc3)C3CC3)no2)cn1 [Example 176, 2-[4-(3-{(R)-1-[4-(5-Amino-pyrazin-2-yl)-phenyl]-1-cyclopropyl-ethyl}-[1,2,4]oxadiazol-5-yl)pyrazol-1-yl]-N,N-dimethyl-acetamide] | 1.2 nM | 73 nM
CN(C)C(=O)Cn1cc(-c2nc(C(C)(c3ccc(-c4cnc(N)nc4)cc3)C3CCC3)no2)cn1 (stereo not shown) [Example 97, 2-[4-(3-{1-[4-(2-aminopyrimidin-5-yl)phenyl]-1-cyclobutylethyl}-1,2,4-oxadiazol-5-yl)-1H-pyrazol-1-yl]-N,N-dimethylacetamide] | 8.8 nM | 170 nM
CC(c1ccc(-c2cnc(N)nc2)cc1)(c1noc(N2CC(O)C2)n1)C1CC1 (stereo not shown) [Example 274, 1-(3-{1-[4-(2-Amino-pyrimidin-5-yl)-phenyl]-1-cyclopropyl-ethyl}-[1,2,4]oxadiazol-5-yl)-azetidin-3-ol] | 40 nM | 200 nM
CC(C)C(C)(c1ccc(-c2cnc(N)nc2)cc1)c1noc(NCCO)n1 (stereo not shown) [Example 80, 2-[(3-{2-[4-(2-aminopyrimidin-5-yl)phenyl]-3-methylbutan-2-yl}-1,2,4-oxadiazol-5-yl)amino]ethanol] | 23 nM | 350 nM
